Values of other authors, collected in EP1219700A1, “Cleaning compositions” (UNILEVER PLC, priority 2000, dated 2002).

Conditions: at 20°C; other common materials, by contrast

Row | Structure (SMILES) | Water Solubility (g/100g)
1 | O=BO[O-].[Na+] [Sodium perborate anhydrous] | 3.7
2 | O=P(O)(O)OP(=O)(O)OP(=O)(O)O [Sodium tripolyphosphate anhydrous] | 15
